Values joined by “and” are separate entries in the source; they are usually repeats but may differ in a detail not shown here. Equal entries are not always repeated. Inconclusive results and toxic doses are left out.
System: CD2F1 mice, L1210 leukemia ip, survival T/C
Experiment: NCI In Vivo Anticancer Drug Screen. Data for tumor model L1210 Leukemia (intraperitoneal) in CD2F1 (CDF1) mice
Conditions: higher = longer survival
Method in brief: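 In this screen, transplantable tumors were grown in mice given either the compound or its vehicle. Results were expressed as the treated measurement relative to the control measurement.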

[1] = endpoint: mean survival time, dose: 100.0 mg/kg/injection, schedule: Q01DX001 (ip), vehicle: saline with Tween-80
[2] = endpoint: mean survival time, dose: 200.0 mg/kg/injection, schedule: Q01DX001 (ip), vehicle: saline with Tween-80
[3] = endpoint: mean survival time, dose: 400.0 mg/kg/injection, schedule: Q01DX001 (ip), vehicle: saline with Tween-80
[4] = endpoint: mean survival time, dose: 100.0 mg/kg/injection, schedule: Q04DX003 (ip), vehicle: saline with Tween-80
[5] = endpoint: mean survival time, dose: 200.0 mg/kg/injection, schedule: Q04DX003 (ip), vehicle: saline with Tween-80
[6] = endpoint: mean survival time, dose: 400.0 mg/kg/injection, schedule: Q04DX003 (ip), vehicle: saline with Tween-80
[7] = endpoint: mean survival time, dose: 12.5 mg/kg/injection, schedule: Q01DX009 (ip), vehicle: saline with Tween-80

## Cc1ccc(S(=O)(=O)OC2CCC3C4CCC5=CC(=O)CCC5(C)C4CCC23C)cc1 (stereo not drawn)
endpoint: mean survival time, dose: 75.0 mg/kg/injection, schedule: Q04DX003 (sc), vehicle: steriod suspending solution
  T/C: 98 % of control
endpoint: mean survival time, dose: 150.0 mg/kg/injection, schedule: Q04DX003 (sc), vehicle: steriod suspending solution
  T/C: 98 % of control
endpoint: mean survival time, dose: 300.0 mg/kg/injection, schedule: Q04DX003 (sc), vehicle: steriod suspending solution
  T/C: 98 % of control

## CC(=O)Oc1ccc(N2C(=O)C3C(C2=O)C2c4ccccc4C3C3CCCCN32)cc1 (stereo not drawn) (tested in a mixture with another compound)
endpoint: mean survival time, dose: 25.0 mg/kg/injection, schedule: Q01DX009 (ip), vehicle: water
  T/C: 101 % of control
endpoint: mean survival time, dose: 50.0 mg/kg/injection, schedule: Q01DX009 (ip), vehicle: water
  T/C: 95 % of control
endpoint: mean survival time, dose: 100.0 mg/kg/injection, schedule: Q01DX009 (ip), vehicle: water
  T/C: 95 % of control
endpoint: mean survival time, dose: 200.0 mg/kg/injection, schedule: Q01DX009 (ip), vehicle: water
  T/C: 90 % of control

## COc1ccc(NC(=O)Oc2ccc(Cl)cc2C)cc1
endpoint: mean survival time, dose: 100.0 mg/kg/injection, schedule: Q04DX002 (ip), vehicle: saline with Tween-80
  T/C: 91 % of control
endpoint: mean survival time, dose: 200.0 mg/kg/injection, schedule: Q04DX002 (ip), vehicle: saline with Tween-80
  T/C: 94 % of control
endpoint: mean survival time, dose: 400.0 mg/kg/injection, schedule: Q04DX002 (ip), vehicle: saline with Tween-80
  T/C: 91 % of control

## COc1ccc2c(c1O)-c1c(OC)c(OC)cc3c1C(C2)N(C)CC3 (stereo not drawn)
[1]
  T/C: 97 % of control
[2]
  T/C: 97 % of control
[3]
  T/C: 108 % of control

## O=C(CCOP(=O)(N(CCCl)CCCl)N1CC1)OCc1ccccc1 (stereo not drawn)
endpoint: mean survival time, dose: 25.0 mg/kg/injection, schedule: Q01DX009 (ip), vehicle: Klucel (hydroxypropylcellulose) (HPC)
  T/C: 97 % of control
endpoint: mean survival time, dose: 50.0 mg/kg/injection, schedule: Q01DX009 (ip), vehicle: Klucel (hydroxypropylcellulose) (HPC)
  T/C: 94 % of control
endpoint: mean survival time, dose: 100.0 mg/kg/injection, schedule: Q01DX009 (ip), vehicle: Klucel (hydroxypropylcellulose) (HPC)
  T/C: 97 % of control
endpoint: mean survival time, dose: 125.0 mg/kg/injection, schedule: Q01DX001 (ip), vehicle: Klucel (hydroxypropylcellulose) (HPC)
  T/C: 98 % of control
endpoint: mean survival time, dose: 200.0 mg/kg/injection, schedule: Q01DX009 (ip), vehicle: Klucel (hydroxypropylcellulose) (HPC)
  T/C: 97 % of control
endpoint: mean survival time, dose: 250.0 mg/kg/injection, schedule: Q01DX001 (ip), vehicle: Klucel (hydroxypropylcellulose) (HPC)
  T/C: 107 % of control
endpoint: mean survival time, dose: 400.0 mg/kg/injection, schedule: Q01DX009 (ip), vehicle: Klucel (hydroxypropylcellulose) (HPC)
  T/C: 107 % of control
endpoint: mean survival time, dose: 500.0 mg/kg/injection, schedule: Q01DX001 (ip), vehicle: Klucel (hydroxypropylcellulose) (HPC)
  T/C: 103 % of control
endpoint: mean survival time, dose: 1000.0 mg/kg/injection, schedule: Q01DX001 (ip), vehicle: Klucel (hydroxypropylcellulose) (HPC)
  T/C: 95 % of control

## CCOC1=NN(c2ccccc2)C(=O)C1
[4]
  T/C: 97 % of control
[5]
  T/C: 100 % of control
[6]
  T/C: 103 % of control

## Clc1ccccc1-c1nc2ccccc2s1
[1]
  T/C: 91 % of control
[4]
  T/C: 97 % of control
[2]
  T/C: 91 % of control
[5]
  T/C: 96 % of control
[3]
  T/C: 91 % of control
[6]
  T/C: 92 % of control

## CC[N+](C)(CC)Cc1ccc([NH-])c([NH-])c1.[Cl][Pt+2][Cl]
endpoint: mean survival time, dose: 3.13 mg/kg/injection, schedule: Q04DX003 (ip), vehicle: water
  T/C: 90 % of control
endpoint: mean survival time, dose: 6.25 mg/kg/injection, schedule: Q04DX003 (ip), vehicle: water
  T/C: 95 % of control
endpoint: mean survival time, dose: 12.5 mg/kg/injection, schedule: Q04DX003 (ip), vehicle: water
  T/C: 94 % of control

## CC(C)[C@]1(O)CC[C@H]2[C@@H]3CCc4cc(O)ccc4[C@H]3CC[C@@]21C
endpoint: mean survival time, dose: 100.0 mg/kg/injection, schedule: Q01DX009 (sc), vehicle: Klucel (hydroxypropylcellulose) (HPC)
  T/C: 104 % of control
endpoint: mean survival time, dose: 200.0 mg/kg/injection, schedule: Q01DX009 (sc), vehicle: Klucel (hydroxypropylcellulose) (HPC)
  T/C: 98 % of control
endpoint: mean survival time, dose: 400.0 mg/kg/injection, schedule: Q01DX009 (sc), vehicle: Klucel (hydroxypropylcellulose) (HPC)
  T/C: 92 % of control

## CSc1nc2c(c(=O)[nH]1)CC(=O)N2
endpoint: median survival time, dose: 50.0 mg/kg/injection, schedule: Q01DX005 (ip), vehicle: saline
  T/C: 93 % of control
endpoint: median survival time, dose: 100.0 mg/kg/injection, schedule: Q01DX005 (ip), vehicle: saline
  T/C: 91 % of control
endpoint: median survival time, dose: 200.0 mg/kg/injection, schedule: Q01DX005 (ip), vehicle: saline
  T/C: 98 % of control

## C#CCOCCBr
endpoint: mean survival time, dose: 50.0 mg/kg/injection, schedule: Q01DX009 (ip), vehicle: acetone
  T/C: 94 % of control
endpoint: mean survival time, dose: 100.0 mg/kg/injection, schedule: Q01DX009 (ip), vehicle: acetone
  T/C: 100 % of control
endpoint: mean survival time, dose: 200.0 mg/kg/injection, schedule: Q01DX009 (ip), vehicle: acetone
  T/C: 103 % of control

## Nc1nc(N)c2c(n1)CCCC2
[7]
  T/C: 93 % of control
endpoint: mean survival time, dose: 25.0 mg/kg/injection, schedule: Q01DX009 (ip), vehicle: saline with Tween-80
  T/C: 88 % of control

## CC(=O)NC(=S)NC(C)=O
endpoint: mean survival time, dose: 75.0 mg/kg/injection, schedule: Q04DX003 (ip), vehicle: saline
  T/C: 103 % of control
endpoint: mean survival time, dose: 150.0 mg/kg/injection, schedule: Q04DX003 (ip), vehicle: saline
  T/C: 103 % of control
endpoint: mean survival time, dose: 300.0 mg/kg/injection, schedule: Q04DX003 (ip), vehicle: saline
  T/C: 107 % of control

## COc1cccnc1/C=N/NC(N)=S
endpoint: mean survival time, dose: 3.13 mg/kg/injection, schedule: Q01DX009 (ip), vehicle: saline with Tween-80
  T/C: 118 % of control
endpoint: mean survival time, dose: 5.54 mg/kg/injection, schedule: Q01DX001 (ip), vehicle: saline with Tween-80
  T/C: 103 % of control
endpoint: mean survival time, dose: 5.54 mg/kg/injection, schedule: Q01DX009 (ip), vehicle: saline with Tween-80
  T/C: 200 % of control
endpoint: mean survival time, dose: 5.54 mg/kg/injection, schedule: Q04DX001 (ip), vehicle: saline with Tween-80
  T/C: 102 % of control
endpoint: mean survival time, dose: 6.25 mg/kg/injection, schedule: Q04DX002 (ip), vehicle: saline with Tween-80
  T/C: 104 % of control
endpoint: mean survival time, dose: 8.32 mg/kg/injection, schedule: Q01DX001 (ip), vehicle: saline with Tween-80
  T/C: 105 % of control
endpoint: mean survival time, dose: 8.32 mg/kg/injection, schedule: Q01DX009 (ip), vehicle: saline with Tween-80
  T/C: 162 % of control
endpoint: mean survival time, dose: 8.32 mg/kg/injection, schedule: Q04DX001 (ip), vehicle: saline with Tween-80
  T/C: 105 % of control
endpoint: mean survival time, dose: 12.5 mg/kg/injection, schedule: Q01DX001 (ip), vehicle: saline with Tween-80
  T/C: 109 % of control
[7]
  T/C: 152 % of control
endpoint: mean survival time, dose: 12.5 mg/kg/injection, schedule: Q04DX001 (ip), vehicle: saline with Tween-80
  T/C: 111 % of control
endpoint: mean survival time, dose: 12.5 mg/kg/injection, schedule: Q04DX002 (ip), vehicle: saline with Tween-80
  T/C: 104 % of control
endpoint: mean survival time, dose: 18.8 mg/kg/injection, schedule: Q01DX001 (ip), vehicle: saline with Tween-80
  T/C: 109 % of control
endpoint: mean survival time, dose: 18.8 mg/kg/injection, schedule: Q04DX001 (ip), vehicle: saline with Tween-80
  T/C: 105 % of control

## COc1c2c(c(OC)c3c(OC)c4ccccc4c(OC)c13)CC(O)CC2 (stereo not drawn)
endpoint: mean survival time, dose: 12.5 mg/kg/injection, schedule: Q01DX005 (ip), vehicle: Klucel (hydroxypropylcellulose) (HPC)
  T/C: 92 % of control
endpoint: mean survival time, dose: 25.0 mg/kg/injection, schedule: Q01DX005 (ip), vehicle: Klucel (hydroxypropylcellulose) (HPC)
  T/C: 90 % of control
endpoint: mean survival time, dose: 50.0 mg/kg/injection, schedule: Q01DX005 (ip), vehicle: Klucel (hydroxypropylcellulose) (HPC)
  T/C: 97 % of control
endpoint: mean survival time, dose: 100.0 mg/kg/injection, schedule: Q01DX005 (ip), vehicle: Klucel (hydroxypropylcellulose) (HPC)
  T/C: 92 % of control
endpoint: mean survival time, dose: 200.0 mg/kg/injection, schedule: Q01DX005 (ip), vehicle: Klucel (hydroxypropylcellulose) (HPC)
  T/C: 103 % of control
endpoint: mean survival time, dose: 400.0 mg/kg/injection, schedule: Q01DX005 (ip), vehicle: Klucel (hydroxypropylcellulose) (HPC)
  T/C: 87 % of control

## Nc1n[nH]c2ccccc12
endpoint: median survival time, dose: 25.0 mg/kg/injection, schedule: Q01DX009 (ip), vehicle: acid diluted with saline
  T/C: 101 % of control and 103 % of control and 105 % of control
endpoint: median survival time, dose: 50.0 mg/kg/injection, schedule: Q01DX009 (ip), vehicle: acid diluted with saline
  T/C: 101 % of control and 108 % of control and 111 % of control
endpoint: median survival time, dose: 100.0 mg/kg/injection, schedule: Q01DX009 (ip), vehicle: acid diluted with saline
  T/C: 107 % of control
endpoint: median survival time, dose: 200.0 mg/kg/injection, schedule: Q01DX009 (ip), vehicle: acid diluted with saline
  T/C: 154 % of control and 158 % of control
endpoint: median survival time, dose: 400.0 mg/kg/injection, schedule: Q01DX009 (ip), vehicle: acid diluted with saline
  T/C: 158 % of control
